Read-outs that look alike come from different tables or passages of the source.
Legend:
[1] = molecular target: GAL4 DBD (1-147)-CfEcR(DEF)/VP16AD-βRXREF-LmUSPEF (Choristoneura fumiferana, UniProt O77240); assay: cell-based; conditions: for 27-63 assay Rel Max FI: maximum fold induction at any concentration relative to that of GS-E ligand, CHO 27-63 cells; for fold induction at 3.3 µM: read-out: Fold Induction, 27-63 Assay, 3.3 uM; for fold induction at 33 µM: read-out: Fold Induction, 27-63 Assay, 33 uM; for Fold Induction, 27-63 Assay, 3.3 uM: 3.3 uM ligand; for Fold Induction, 27-63 Assay, 3.3 uM / Fold Induction, 27-63 Assay, 33 uM: RLU ligand treated / RLU DMSO treated cells; for Fold Induction, 27-63 Assay, 33 uM: 33 uM ligand
[2] = molecular target: GAL4 DBD-CfEcR(DEF)/VP16AD-MmRXRE (Choristoneura fumiferana, UniProt O77240); assay: 13B3 Assay (CHO stable cell line, luciferase reporter); conditions: for fold induction at 3.3 µM: read-out: Fold Induction, 13B3 Assay, 3.3 uM; for fold induction at 33 µM: read-out: Fold Induction, 13B3 Assay, 33 uM; for Fold Induction, 13B3 Assay, 33 uM: 33 uM ligand; for Fold Induction, 13B3 Assay, 33 uM / Fold Induction, 13B3 Assay, 3.3 uM: RLU ligand treated / RLU DMSO treated cells; for Fold Induction, 13B3 Assay, 3.3 uM: 3.3 uM ligand; for 13B3 assay Rel Max FI: maximum fold induction at any concentration relative to that of GS-E ligand, CHO 13B3 cells
In short: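 Ligands dosed at 8 levels from 33 to 0.01 μM (DMSO stocks diluted 300-fold) onto the 13B3 CHO line carrying GAL4-DBD/CfEcR-DEF, VP16/MmRXR-DE and a GAL4-responsive luciferase gene.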

[3] = read-out: 27-63 assay EC50, CHO 27-63 stable cell line, luciferase reporter, average of two wells
[4] = read-out: 13B3 EC50, CHO 13B3 stable cell line, luciferase reporter, 48 h, average of two wells

SMILES | EC50 [1] [µM] | 27-63 assay Rel Max FI [1] | fold induction at 3.3 µM [1] | fold induction at 33 µM [1] | EC50 [2] [µM] | fold induction at 3.3 µM [2] | fold induction at 33 µM [2] | Fold Induction, 27-63 Assay, 3.3 uM ([1]; average of two wells) | Fold Induction, 27-63 Assay, 33 uM ([1]; average of two wells) | EC50 [1, 3] [µM] | Fold Induction, 13B3 Assay, 33 uM ([2]; average of two wells) | Fold Induction, 13B3 Assay, 3.3 uM ([2]; average of two wells) | 13B3 assay Rel Max FI [2] | EC50 [2, 4] [µM]
CC(C)(C)N(NC(=O)c1ccc(Cl)cc1)C(=O)c1ccccc1 [RG-100864] | 17.3 | 0.716 | 1 | 1180 | 1.16 | 318 | 187 | – | – | – | – | – | – | –
COc1ccc(OC)c(C(=O)N(NC(=O)c2cccc(C)c2C)C(C)(C)C)c1 [RG-100763] | – | 0.856 | – | – | – | – | – | 107 | 1609 | 5.3 | 2442 | – | – | –
CCc1c(OC)cccc1C(=O)NN(C(=O)c1cc(C)cc(C)c1)C(C)(C)C=NNC(N)=O [RG-115653, semicarbazide of 2-ethyl-3-methoxy-benzoic acid N′-(3,5-dimethyl-benzoyl)-N′-(1,1-dimethyl-2-oxo-ethyl)-hydrazide] | – | 0.53 | – | – | – | – | – | 1 | 832 | 19.8 | – | 6 | – | –
CCc1c(OC)cccc1C(=O)NN(C(=O)c1cc(Cl)ccc1OC)C(C)(C)C [RG-115253] | – | 0.742 | – | – | – | – | – | 848 | 910 | 0.107 | 471 | – | – | –
COc1cc(C(=O)N(NC(=O)c2ccc3c(c2C)CCCO3)C(C)(C)C)cc(OC)c1C [RG-115055] | – | 1.341 | – | – | – | – | – | 4499 | 2725 | 0.318 | 1350 | 1356 | 0.894 | 0.303
CCc1ccc(C(=O)NN(C(=O)c2cc(C)cc(C)c2)C(C)(C)C)c(F)c1 [RG-101523, 3,5-Dimethyl-benzoic acid N-tert-butyl-N′-(4-ethyl-2-fluoro-benzoyl)-hydrazide] | 0.165 | 0.943 | 2430 | 2740 | 2.37 | 831 | 718 | – | – | – | – | – | 0.772 | –
CC(O)c1ccc(C(=O)NN(C(=O)c2cc(F)cc(F)c2)C(C)(C)C)cc1 (stereo not shown) [RG-100342] | – | 0.674 | – | – | – | – | – | 2 | 1287 | 17.7 | 611 | – | – | –
COc1ccccc1C(=O)N(NC(=O)c1ccc2c(c1C)CCCO2)C(C)(C)C [RG-115102] | – | 0.667 | – | – | – | – | – | 1154 | 971 | 0.491 | 109 | 1425 | 0.546 | 0.93
CCc1c(OC)cccc1C(=O)NN(C(=O)c1cc(C)cc(C)c1)C(C)(C)C=O [RG-115407, 2-ethyl-3-methoxy-benzoic acid N′-(3,5-dimethyl-benzoyl)-N′-(1,1-dimethyl-2-oxo-ethyl)-hydrazide] | 1.06 | 0.932 | 1610 | 1520 | 7 | 2480 | 2610 | – | – | – | – | – | 1.048 | –
CCc1c(OC)cccc1C(=O)NN(C(=O)c1ccccc1OC)C(C)(C)C [RG-100725] | – | 0.726 | – | – | – | – | – | 1096 | 1050 | 0.33 | 581 | – | – | –
Cc1cc(C)cc(C(=O)N(NC(=O)c2ccc3c(c2C)OCCO3)C(C)(C)C)c1 [RG-102317, N-(5-methyl-1,4-benzodioxan-6-carbonyl)-N′-(tert-butyl)-N′-(3,5-dimethylbenzoyl)hydrazine] | 0.102 | 0.948 | 2550 | 2500 | 0.345 | 2420 | 814 | – | – | – | – | – | – | –
CCc1c(OC)cccc1C(=O)NN(C(=O)c1cc(F)c(Cl)cc1Cl)C(C)(C)C [RG-115302] | – | 0.521 | – | – | – | – | – | 940 | 815 | 1.04 | 648 | 521 | 0.624 | 2
